Values of other authors as cited in US20220161013A1, “IMPROVED DELIVERY OF DRUG THERAPY TO THE CNS BY ULTRASOUND-BASED OPENING OF THE BLOOD-BRAIN BARRIER” (NORTHWESTERN UNIVERSITY, priority 2019, published 2022).

What was measured:
[1] = local convection-enhanced delivery
[2] = system: orthotropic glioma xenograft model; conditions: with valspodar, nude mice
p-Glycoprotein = p-Glycoprotein (Homo sapiens, UniProt P08183)
Chain of p-Glycoprotein (P08183 whole entry): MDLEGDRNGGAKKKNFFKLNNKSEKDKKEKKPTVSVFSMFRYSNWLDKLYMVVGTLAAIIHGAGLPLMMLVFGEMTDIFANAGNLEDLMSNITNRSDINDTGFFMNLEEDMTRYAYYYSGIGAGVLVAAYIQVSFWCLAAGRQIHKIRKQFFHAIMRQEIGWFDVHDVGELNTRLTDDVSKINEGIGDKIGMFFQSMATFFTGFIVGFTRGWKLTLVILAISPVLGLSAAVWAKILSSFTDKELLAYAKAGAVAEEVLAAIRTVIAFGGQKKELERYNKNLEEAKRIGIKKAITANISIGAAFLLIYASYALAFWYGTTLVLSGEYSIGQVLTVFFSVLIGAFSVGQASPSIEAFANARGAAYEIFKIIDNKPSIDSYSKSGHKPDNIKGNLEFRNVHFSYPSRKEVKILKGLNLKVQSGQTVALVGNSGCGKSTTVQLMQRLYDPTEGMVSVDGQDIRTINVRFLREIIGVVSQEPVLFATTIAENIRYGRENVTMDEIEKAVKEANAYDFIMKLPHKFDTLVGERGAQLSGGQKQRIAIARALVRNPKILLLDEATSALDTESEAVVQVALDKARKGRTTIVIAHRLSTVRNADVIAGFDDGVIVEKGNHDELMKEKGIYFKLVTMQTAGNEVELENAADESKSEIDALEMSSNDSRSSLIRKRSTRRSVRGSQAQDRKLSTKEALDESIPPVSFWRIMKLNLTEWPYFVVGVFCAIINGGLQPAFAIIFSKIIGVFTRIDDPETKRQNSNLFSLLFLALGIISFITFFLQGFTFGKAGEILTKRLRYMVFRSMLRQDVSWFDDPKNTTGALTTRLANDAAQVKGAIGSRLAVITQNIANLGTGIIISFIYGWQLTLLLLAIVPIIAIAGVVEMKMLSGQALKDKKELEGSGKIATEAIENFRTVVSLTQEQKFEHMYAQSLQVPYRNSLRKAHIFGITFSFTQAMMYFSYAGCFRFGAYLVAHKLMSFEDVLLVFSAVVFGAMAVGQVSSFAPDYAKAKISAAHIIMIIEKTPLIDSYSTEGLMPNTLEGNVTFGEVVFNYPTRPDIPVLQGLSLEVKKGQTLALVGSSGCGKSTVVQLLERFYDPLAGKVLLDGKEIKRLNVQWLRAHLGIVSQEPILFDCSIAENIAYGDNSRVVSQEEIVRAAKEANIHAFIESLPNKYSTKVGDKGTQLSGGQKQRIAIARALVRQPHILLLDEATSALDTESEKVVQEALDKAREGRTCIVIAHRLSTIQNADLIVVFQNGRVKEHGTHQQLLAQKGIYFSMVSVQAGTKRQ

substrate for the multidrug resistance protein p-Glycoprotein (p-Glycoprotein): substrate
SMILES: CC(=O)O[C@H]1C(=O)[C@@]2(C)[C@H]([C@H](OC(=O)c3ccccc3)[C@]3(O)C[C@H](OC(=O)[C@H](O)[C@@H](NC(=O)c4ccccc4)c4ccccc4)C(C)=C1C3(C)C)[C@]1(OC(C)=O)CO[C@@H]1C[C@@H]2O [PTX, paclitaxel]
response rate [1]: 73%
effectiveness when using p-Glycoprotein blocker valspodar [2]: significant increased effectiveness
